Source: US5623080A, “Fluorone and pyronin Y derivatives” (Spectra Group Limited, Inc., priority 1995, dated 1997)

What was measured:
[1] = absorption wavelength (λmax) and extinction (ε); assay type: physicochemical; conditions: EtOH, Table 1
[2] = depth of cure
From the text: One of the advantages of the fluorone dye photoinitiators in this invention is the depth of the cure that is obtainable. This is in contrast to UV photoinitators that causes a "screening" effect which prevents the UV light from penetrating beyond a certain […] depth, usually several millimeters. By contrast, the fluorone dye bleaches as it photoinitiates and is concommitantly converted into a non-visible absorbing species thus allowing more visible light to penetrate which continues the cure. This cascading bleaching effect permits substantial depth of cure which can easily reach several inches.
An acrylate monomer mixture was composed of 15 parts urethane diacrylate, 20 parts TPGPA, 40 parts TMPTA and 15 parts DPHPA, and a 20 to 1 weight ratio of NPG coinitiator to DIEF or DIBF fluorone dye. For dye concentrations of 0.01, 0.05 and 0.1 weight, all the formulations cured to a depth of 3 cm in 30 seconds when exposed to a 350 watt tungsten halogen light which provides about 500 mw/cm^2 irradiance. When the irradiance was increased to about 2 watts/cm^2 cure speed was shortened to 5 seconds for the same depth.
An acrylate mixture was composed of 60% urethane diacrylate, 30% DPHPA, 10% BDDA, and 0.05 weight % of DIEF or DIBF fluorone dye with 2 weight % of DIDMA. The formulation cure to a depth greater than 1 cm in 10 seconds when exposed to a 75 watt tungsten halogen lamp which provided an irradiance of about 260 mw/cm^2.
An acrylate mixture was composed of 33% TMPTA, 33% DPHPA, 33% Epoxy acrylate, and 2% of DIDMA with either 0.01, 0.05 or 0.1 weight % of DIEF. All samples cured to a depth greater than 1 cm in 10 seconds when exposed to a 75 watt tungsten halogen.
An acrylate mixture was composed of 70% urethane diacrylate, 5% DPHPA, 25% BDDA, and 2% DIDMA with either 0.01, 0.03 or 0.1 weight % DIEF. The 0.01 and 0.03 samples cured after 2 passes through a 300 watt per inch medium pressure mercury arc lamp at a speed of 50 feet/minute to a depth greater than 3 mm. The 0.1 sample cured to a depth of greater than 1.5 mm.

[3] = double bond conversion (C=C% Conversion) by FTIR
Experimental: (§1) To a resin formulation consisting of 15 parts urethane diacrylate, 15 parts DPHPA, 20 parts TPGDA and 40 parts TMPTA was added DIDMA, initiator and (4-octyloxyphenyl)phenyliodonium hexafluoroantimonate (OPPI). The samples were coated to a thickness of 15 microns and exposed to a 75 W tungsten halogen dental lamp (focused through an optical fiber) at a distance of 0.75 inch at which the Light intensity was about 0.40 W/cm^2. The molar ratios are indicative of the amounts of fluorone to onium salt to amine coinitiator. The double bond conversion was determined by FTIR spectroscopy. The pencil hardness of a given test sample is measured by holding a pencil at a 45° angle to the sample and drawing across it towards the person testing it. Using the pencils in an order from softest to hardest, the first pencil that scratches the surface is assigned as the pencil hardness of the sample. The pencil hardness scale is as follows from softest to hardest: 4B, 3B, 2B, B, HB, H, 2H, 3H, 4H, 6H. For instance, if a 2H pencil is the first pencil to scratch the surface then the pencil hardness is 2H.

[4] = double bond conversion (C=C% Conversion) by FTIR; conditions: DIDMA
Experimental: as §1
(§2) The foregoing study was repeated using 100% butanediol diacrylate, and 100% polyethylene glycol diacrylate (MW=400)(PEGA 400).

[5] = double bond conversion (C=C% Conversion) by FTIR; conditions: DIDMA; remark: listed apart in the source
Experimental: as §1, §2

[6] = double bond conversion (C=C% Conversion) by FTIR; conditions: 0.05 wt %; (1:2:3); NPG; 60 sec

For CCCCOc1ccc2cc3cc(I)c(=O)c(I)c-3oc2c1 [DIBF, 5,7-diiodo-3-butoxy-6-fluorone], the “λmax in EtOH (first value)” value [1] was 470, the “ε (first value)” value ([1]; at first λmax, in M-1cm-1 (unit assumed)) was 30,200 and the depth of cure ([2]; 10 seconds, 75 watt tungsten halogen, about 260 mw/cm^2, 0.05 weight % dye, 2 weight % DIDMA, 60% urethane diacrylate, 30% DPHPA, 10% BDDA) was “greater than 1 cm”. The depth of cure ([2]; 30 seconds, 350 watt tungsten halogen, about 500 mw/cm^2, dye 0.01, 0.05 and 0.1 weight, NPG 20 to 1) was 3 cm, the “cure time for the same depth (3 cm)” value ([2]; about 2 watts/cm^2, NPG 20 to 1) was 5 s and the “C=C% Conversion” value ([3]; 0.05 wt %, (1:0:60), DIDMA, 30 sec) was 37%. For the same molecule, the “C=C% Conversion” value ([3]; 0.05 wt %, (1:1:60), DIDMA, 30 sec) was 37%, the “C=C% Conversion” value ([3]; 0.05 wt %, (1:2:0), DIDMA, 30 sec) was 5% and the “C=C% Conversion” value ([3]; 0.05 wt %, (1:2:3), DIDMA, 30 sec) was 40%. For the same molecule, the “C=C% Conversion” value ([3]; 0.05 wt %, (1:2:3), DIDMA, 60 sec) was 43%, the “C=C% Conversion” value ([3]; 0.05 wt %, (1:2:3), NPG, 30 sec) was 40% and the “C=C% Conversion” value ([3]; 0.05 wt %, (1:2:5), DIDMA, 30 sec) was 40%. The “C=C% Conversion” value ([3]; 0.05 wt %, (1:2:60), DIDMA, 30 sec) was 43%, the “C=C% Conversion” value ([3]; 0.10 wt %, (1:2:0), DIDMA, 30 sec) was 18% and the “C=C% Conversion” value ([3]; 0.10 wt %, (1:2:3), DIDMA, 30 sec) was 45%. The “C=C% Conversion” value ([3]; 0.10 wt %, (1:2:3), DIDMA, 60 sec) was 47%, the “C=C% Conversion” value ([3]; 0.15 wt %, (1:2:0), DIDMA, 30 sec) was 19% and the “C=C% Conversion” value ([3]; 0.15 wt %, (1:2:3), DIDMA, 30 sec) was 50%. For the same molecule, the “C=C% Conversion” value ([3]; 0.15 wt %, (1:2:3), DIDMA, 60 sec) was 54%, the “C=C% Conversion” value ([3]; 0.20 wt %, (1:2:3), DIDMA, 30 sec) was 51% and the “C=C% Conversion” value ([3]; 0.25 wt %, (1:2:3), DIDMA, 30 sec) was 50%. For the same molecule, the “C=C% Conversion” value ([4]; 0.05 wt %, (1:0:60), 30 sec) was 30%, the “C=C% Conversion” value ([4]; 0.05 wt %, (1:2:3), 30 sec) was 49% and the “C=C% Conversion” value ([4]; 0.10 wt %, (1:2:3), 30 sec) was 56%. For the same molecule, the “C=C% Conversion” value ([4]; 0.10 wt %, (1:2:3), 60 sec) was 56%, the “C=C% Conversion” value ([4]; 0.15 wt %, (1:3:3), 30 sec) was 58% and the “C=C% Conversion” value ([5]; 0.05 wt %, (1:0:60), 60 sec) was 50%. For the same molecule, the “C=C% Conversion” value ([5]; 0.05 wt %, (1:2:3), 60 sec) was 61%, the “C=C% Conversion” value ([5]; 0.10 wt %, (1:2:3), 60 sec) was 90% and the “C=C% Conversion” value ([5]; 0.15 wt %, (1:2:3), 10 sec) was 60%. For the same molecule, the “C=C% Conversion” value ([5]; 0.15 wt %, (1:2:3), 30 sec) was 84%, the “C=C% Conversion” value ([5]; 0.15 wt %, (1:2:3), 60 sec) was 90% and the “C=C% Conversion” value [6] was 43%.
